Test results as given in patent US12091402B2 (Avilar Therapeutics, Inc., priority 2021, dated 2024).

Molecular target: T1, ASGPR (Homo sapiens, UniProt P07306)
T1 sequence (P07306 1-291): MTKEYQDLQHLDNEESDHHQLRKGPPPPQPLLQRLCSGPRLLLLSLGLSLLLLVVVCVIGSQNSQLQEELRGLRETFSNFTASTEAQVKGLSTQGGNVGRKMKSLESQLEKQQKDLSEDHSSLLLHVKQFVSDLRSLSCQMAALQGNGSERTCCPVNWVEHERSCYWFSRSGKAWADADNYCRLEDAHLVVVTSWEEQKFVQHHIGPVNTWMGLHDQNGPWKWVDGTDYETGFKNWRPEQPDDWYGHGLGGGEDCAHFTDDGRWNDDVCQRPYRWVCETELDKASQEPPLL
Experiment: Affinity to ASGPR by surface plasmon resonance (SPR)

| Kd | Structure (SMILES) |
| --- | --- |
| < 0.1 µM | [N-]=[N+]=NCCCCCC(=O)NC(COCc1cn(CCOCCOCCOCCOC[C@H]2OC[C@H](Nc3nccc(C(F)(F)F)n3)[C@@H](O)[C@H]2O)nn1)COCc1cn(CCOCCOCCOCCOC[C@H]2OC[C@H](Nc3nccc(C(F)(F)F)n3)[C@@H](O)[C@H]2O)nn1 [A15, 6-azido-N-(1,3-bis((1-(1-((2R,3R,4R,5S)-3,4-dihydroxy-5-((4-(trifluoromethyl)pyrimidin-2-yl)amino)tetrahydro-2H-pyran-2-yl)-2,5,8,11-tetraoxatridecan-13-yl)-1H-1,2,3-triazol-4-yl)methoxy)propan-2-yl)hexanamide] |
| < 1 µM | CC(=O)NC[C@H]1OC[C@H](Nc2cncc(C(F)(F)F)n2)[C@@H](O)[C@H]1O [A90, N-(((2R,3R,4R,5S)-3,4-dihydroxy-5-((6-(trifluoromethyl)pyrazin-2-yl)amino)tetrahydro-2H-pyran-2-yl)methyl)acetamide] |
| < 0.1 µM | O=C(O)CC(=O)NC(COCCC(=O)NCCOCCOCCOCCOC[C@H]1OC[C@H](Nc2cncc(C(F)(F)F)n2)[C@@H](O)[C@H]1O)COCCC(=O)NCCOCCOCCOCCOC[C@H]1OC[C@H](Nc2cncc(C(F)(F)F)n2)[C@@H](O)[C@H]1O [A34, 1-((2R,3R,4R,5S)-3,4-dihydroxy-5-((6-(trifluoromethyl)pyrazin-2-yl)amino)tetrahydro-2H-pyran-2-yl)-20-(1-((2R,3R,4R,5S)-3,4-dihydroxy-5-((6-(trifluoromethyl)pyrazin-2-yl)amino)tetrahydro-2H-pyran-2-yl)-15-oxo-2,5,8,11,18-pentaoxa-14-azanonadecan-19-yl)-15,22-dioxo-2,5,8,11,18-pentaoxa-14,21-diazatetracosan-24-oic acid] |
| < 1 µM | C=CCO[C@H]1O[C@H](Cn2ccnn2)[C@H](O)[C@H](O)[C@H]1Nc1nccc(C(F)(F)F)n1 [A69, (2R,3R,4R,5R,6S)-2-((1H-1,2,3-triazol-1-yl)methyl)-6-(allyloxy)-5-((4-(trifluoromethyl)pyrimidin-2-yl)amino)tetrahydro-2H-pyran-3,4-diol] |
| > 20 µM | NC(=O)c1sc(N[C@H]2CO[C@H](CO)[C@H](O)[C@@H]2O)nc1C(F)(F)F [A54, 2-(((3S,4R,5R,6R)-4,5-dihydroxy-6-(hydroxymethyl)tetrahydro-2H-pyran-3-yl)amino)-4-(trifluoromethyl)thiazole-5-carboxamide] |
| 1 to 10 µM | OC[C@@]12CO[C@@H](O1)[C@H](Nc1nc3ccccc3o1)[C@@H](O)[C@H]2O [A45, (1S,2R,3R,4R,5S)-4-(benzo[d]oxazol-2-ylamino)-1-(hydroxymethyl)-6,8-dioxabicyclo[3.2.1]octane-2,3-diol] |
| < 0.1 µM | O=[N+]([O-])c1ccc(NCCOCCOCCOCCOC[C@H]2OC[C@@H](Nc3nc(Cl)ns3)[C@@H](O)[C@H]2O)c([N+](=O)[O-])c1 [Compound 24, (2R,3R,4R,5R)-5-((3-chloro-1,2,4-thiadiazol-5-yl)amino)-2-(13-((2,4-dinitrophenyl)amino)-2,5,8,11-tetraoxatridecyl)tetrahydro-2H-pyran-3,4-diol] |
| < 1 µM | COc1cc(C(F)(F)F)nc(N[C@H]2[C@H]3OC[C@](CO)(O3)[C@H](O)[C@@H]2O)n1 [A46, (1S,2R,3R,4R,5S)-1-(hydroxymethyl)-4-((4-methoxy-6-(trifluoromethyl)pyrimidin-2-yl)amino)-6,8-dioxabicyclo[3.2.1]octane-2,3-diol] |
| < 1 µM | O=C(NC[C@H]1OC[C@H](Nc2cncc(C(F)(F)F)n2)[C@@H](O)[C@H]1O)C12CC(C1)C2 [A102, N-(((2R,3R,4R,5S)-3,4-dihydroxy-5-((6-(trifluoromethyl)pyrazin-2-yl)amino)tetrahydro-2H-pyran-2-yl)methyl)bicyclo[1.1.1]pentane-1-carboxamide] |
| < 0.1 µM | O=C(CCOCc1ccc(-c2cccc3ccncc23)c(OCCc2ccc(-c3cccc4ccncc34)cc2)c1)NCCOCCOCCOCCOC[C@@]12CO[C@@H](O1)[C@H](Nc1cncc(C(F)(F)F)n1)[C@@H](O)[C@H]2O [Compound 56] |
| > 0.1 µM | OC[C@H]1OCC(Nc2cc(C(F)(F)F)[nH]n2)[C@@H](O)[C@H]1O (stereo in doubt) [A93, (2R,3R,4R,5S)-2-(hydroxymethyl)-5-((5-(trifluoromethyl)-1H-pyrazol-3-yl)amino)tetrahydro-2H-pyran-3,4-diol] |
| 1 to 10 µM | COC(=N)c1cc(OC)nc(N[C@H]2CO[C@H](CO)[C@H](O)[C@@H]2O)n1 [A48, methyl 2-(((3S,4R,5R,6R)-4,5-dihydroxy-6-(hydroxymethyl)tetrahydro-2H-pyran-3-yl)amino)-6-methoxypyrimidine-4-carbimidate] |
| < 0.1 µM | NC(COCCC(=O)NCCOCCOCCOCCOC[C@H]1OC[C@H](Nc2cncc(C(F)(F)F)n2)[C@@H](O)[C@H]1O)COCCC(=O)NCCOCCOCCOCCOC[C@H]1OC[C@H](Nc2cncc(C(F)(F)F)n2)[C@@H](O)[C@H]1O [A131] |
| > 20 µM | C[C@@H]1O[C@H](CO)[C@H](O)[C@H](O)[C@H]1N=[N+]=[N-] [A50, (2R,3R,4R,5R,6S)-5-azido-2-(hydroxymethyl)-6-methyltetrahydro-2H-pyran-3,4-diol] |
| 1 to 10 µM | OC[C@H]1OC[C@H](Nc2ncnn3cccc23)[C@@H](O)[C@H]1O [A49, (2R,3R,4R,5S)-2-(hydroxymethyl)-5-(pyrrolo[2,1-f][1,2,4]triazin-4-ylamino)tetrahydro-2H-pyran-3,4-diol] |
| < 1 µM | COc1cc(N[C@H]2[C@H]3OC[C@](CO)(O3)[C@H](O)[C@@H]2O)nc(C(F)(F)F)n1 [A47, (1S,2R,3R,4R,5S)-1-(hydroxymethyl)-4-((6-methoxy-2-(trifluoromethyl)pyrimidin-4-yl)amino)-6,8-dioxabicyclo[3.2.1]octane-2,3-diol] |
| < 0.1 µM | O=C(O)CNC(COCCC(=O)NCCOCCOCCOCCOC[C@H]1OC[C@H](Nc2nccc(C(F)(F)F)n2)[C@@H](O)[C@H]1O)COCCC(=O)NCCOCCOCCOCCOC[C@H]1OC[C@H](Nc2nccc(C(F)(F)F)n2)[C@@H](O)[C@H]1O [A132] |
| 0.1 to 0.5 µM | [N-]=[N+]=NCCCCCC(=O)NC(COCCC(=O)NCCOCCOCCOCCOC[C@@]12CO[C@@H](O1)[C@H](Nc1nc(Cl)ns1)[C@@H](O)[C@H]2O)COCCC(=O)NCCOCCOCCOCCOC[C@@]12CO[C@@H](O1)[C@H](Nc1nc(Cl)ns1)[C@@H](O)[C@H]2O [A14, 3,3′-((2-(6-azidohexanamido)propane-1,3-diyl)bis(oxy))bis(N-(1-((1S,2R,3R,4R,5S)-4-((3-chloro-1,2,4-thiadiazol-5-yl)amino)-2,3-dihydroxy-6,8-dioxabicyclo[3.2.1]octan-1-yl)-2,5,8,11-tetraoxatridecan-13-yl)propanamide)] |
| 1 to 10 µM | OCc1cnn(C[C@H]2OC[C@H](Nc3nccc(C(F)(F)F)n3)[C@@H](O)[C@H]2O)c1 [A62, (2R,3R,4R,5S)-2-((4-(hydroxymethyl)-1H-pyrazol-1-yl)methyl)-5-((4-(trifluoromethyl)pyrimidin-2-yl)amino)tetrahydro-2H-pyran-3,4-diol] |
| < 1 µM | OC[C@@]12CO[C@@H](O1)[C@H](Nc1ncc(C(F)(F)F)c(Cl)n1)[C@@H](O)[C@H]2O [A115, (1S,2R,3R,4R,5S)-4-((4-chloro-5-(trifluoromethyl)pyrimidin-2-yl)amino)-1-(hydroxymethyl)-6,8-dioxabicyclo[3.2.1]octane-2,3-diol] |
| > 20 µM | O[C@@H]1[C@H](O)[C@@H](Nc2nccc(C(F)(F)F)n2)CO[C@@H]1c1nc2ccc(Br)cc2[nH]1 [A94, (2R,3R,4R,5S)-2-(6-bromo-1H-benzo[d]imidazol-2-yl)-5-((4-(trifluoromethyl)pyrimidin-2-yl)amino)tetrahydro-2H-pyran-3,4-diol] |
| 0.1 to 0.5 µM | O=C(O)COCCOCCOCCOC[C@H]1OC[C@H](Nc2nccc(C(F)(F)F)n2)[C@@H](O)[C@H]1O [A25, 1-((2R,3R,4R,5S)-3,4-dihydroxy-5-((4-(trifluoromethyl)pyrimidin-2-yl)amino)tetrahydro-2H-pyran-2-yl)-2,5,8,11-tetraoxatridecan-13-oic acid] |
| < 0.1 µM | [N-]=[N+]=NCCCCCC(=O)NC(COCCC(=O)NCCOCCOCCOCCOC[C@H]1OC[C@H](Nc2cncc(C(F)(F)F)n2)[C@@H](O)[C@H]1O)COCCC(=O)NCCOCCOCCOCCOC[C@H]1OC[C@H](Nc2cncc(C(F)(F)F)n2)[C@@H](O)[C@H]1O [A2, 3,3′-((2-(6-azidohexanamido)propane-1,3-diyl)bis(oxy))bis(N-(1-((2R,3R,4R,5S)-3,4-dihydroxy-5-((6-(trifluoromethyl)pyrazin-2-yl)amino)tetrahydro-2H-pyran-2-yl)-2,5,8,11-tetraoxatridecan-13-yl)propanamide)] |
| 1 to 10 µM | COCCO[C@@H]1O[C@H](CO)[C@H](O)[C@H](O)[C@H]1NC(=O)C(F)(F)F [A104, N-((2R,3R,4R,5R,6R)-4,5-dihydroxy-6-(hydroxymethyl)-2-(2-methoxyethoxy)tetrahydro-2H-pyran-3-yl)-2,2,2-trifluoroacetamide] |
| < 1 µM | O[C@@H]1[C@H](O)[C@@H](Nc2cncc(C(F)(F)F)n2)CO[C@@H]1CNc1cnccn1 [A122] |
| 1 to 10 µM | N#Cc1ccnnc1N[C@H]1[C@H]2OC[C@](CO)(O2)[C@H](O)[C@@H]1O [A39, 3-[[(1S,2R,3R,4R,5S)-2,3-dihydroxy-1-(hydroxymethyl)-6,8-dioxabicyclo[3.2.1]octan-4-yl]amino]pyridazine-4-carbonitrile] |
| < 1 µM | OC[C@@]12CO[C@@H](O1)[C@H](Nc1cccc(C(F)(F)F)n1)[C@@H](O)[C@H]2O [A87, (1S,2R,3R,4R,5S)-1-(hydroxymethyl)-4-((6-(trifluoromethyl)pyridin-2-yl)amino)-6,8-dioxabicyclo[3.2.1]octane-2,3-diol] |
| < 1 µM | [N-]=[N+]=NC[C@H]1OC[C@H](Nc2nccc(C(F)(F)F)n2)[C@@H](O)[C@H]1O [A59, (2R,3R,4R,5S)-2-(azidomethyl)-5-((4-(trifluoromethyl)pyrimidin-2-yl)amino)tetrahydro-2H-pyran-3,4-diol] |
